In ChEMBL document CHEMBL4421728, “Bach1 Inhibitors in Combination with Nrf2 Activators and Pharmaceutical Compositions Thereof” (2017):

Tests used:
[1] = target: T1, Nuclear factor erythroid 2-related factor 2 (Homo sapiens) (UniProt Q16236); assay: Activation of Nrf2 in normal human lung fibroblasts assessed as induction of HMOX protein expression at 0.0024 uM incubated for 16 to 18 hrs by immunostaining relative to control
T1 sequence (whole entry): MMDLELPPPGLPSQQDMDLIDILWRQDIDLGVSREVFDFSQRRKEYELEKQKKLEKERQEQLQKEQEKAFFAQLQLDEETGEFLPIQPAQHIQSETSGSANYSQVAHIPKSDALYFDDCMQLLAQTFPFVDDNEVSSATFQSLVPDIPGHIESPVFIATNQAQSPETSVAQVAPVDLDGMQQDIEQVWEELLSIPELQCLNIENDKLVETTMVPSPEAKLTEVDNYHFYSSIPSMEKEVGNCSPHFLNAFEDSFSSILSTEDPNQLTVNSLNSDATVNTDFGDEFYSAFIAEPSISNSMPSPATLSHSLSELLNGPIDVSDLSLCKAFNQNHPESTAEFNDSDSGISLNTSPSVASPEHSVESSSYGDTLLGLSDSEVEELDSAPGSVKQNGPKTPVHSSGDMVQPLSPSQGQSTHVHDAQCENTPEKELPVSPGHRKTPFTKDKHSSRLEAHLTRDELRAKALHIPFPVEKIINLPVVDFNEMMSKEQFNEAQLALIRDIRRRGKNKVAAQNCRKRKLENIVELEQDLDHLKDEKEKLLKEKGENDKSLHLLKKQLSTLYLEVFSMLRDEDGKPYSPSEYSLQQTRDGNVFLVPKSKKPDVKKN

[2] = target: T1, Nuclear factor erythroid 2-related factor 2 (Homo sapiens); assay: Activation of Nrf2 in normal human lung fibroblasts assessed as induction of HMOX protein expression at 0.0048 uM incubated for 16 to 18 hrs by immunostaining relative to control
[3] = target: T1, Nuclear factor erythroid 2-related factor 2 (Homo sapiens); assay: Activation of Nrf2 in normal human lung fibroblasts assessed as induction of HMOX protein expression at 0.0097 uM incubated for 16 to 18 hrs by immunostaining relative to control
[4] = target: T1, Nuclear factor erythroid 2-related factor 2 (Homo sapiens); assay: Activation of Nrf2 in normal human lung fibroblasts assessed as induction of HMOX protein expression at 0.019 uM incubated for 16 to 18 hrs by immunostaining relative to control
[5] = target: T1, Nuclear factor erythroid 2-related factor 2 (Homo sapiens); assay: Activation of Nrf2 in normal human lung fibroblasts assessed as induction of HMOX protein expression at 0.039 uM incubated for 16 to 18 hrs by immunostaining relative to control
[6] = target: T1, Nuclear factor erythroid 2-related factor 2 (Homo sapiens); assay: Activation of Nrf2 in normal human lung fibroblasts assessed as induction of HMOX protein expression at 0.078 uM incubated for 16 to 18 hrs by immunostaining relative to control
[7] = target: T1, Nuclear factor erythroid 2-related factor 2 (Homo sapiens); assay: Activation of Nrf2 in normal human lung fibroblasts assessed as induction of HMOX protein expression at 0.156 uM incubated for 16 to 18 hrs by immunostaining relative to control
[8] = target: T1, Nuclear factor erythroid 2-related factor 2 (Homo sapiens); assay: Activation of Nrf2 in normal human lung fibroblasts assessed as induction of HMOX protein expression at 0.312 uM incubated for 16 to 18 hrs by immunostaining relative to control
[9] = target: T1, Nuclear factor erythroid 2-related factor 2 (Homo sapiens); assay: Activation of Nrf2 in normal human lung fibroblasts assessed as induction of HMOX protein expression by measuring HMOX positive cells level at 0.03 uM incubated for 16 to 18 hrs by immunostaining relative to control DMSO
[10] = target: T1, Nuclear factor erythroid 2-related factor 2 (Homo sapiens); assay: Activation of Nrf2 in normal human lung fibroblasts assessed as induction of HMOX protein expression by measuring HMOX positive cells level at 0.1 uM incubated for 16 to 18 hrs by immunostaining relative to control DMSO
[11] = target: T1, Nuclear factor erythroid 2-related factor 2 (Homo sapiens); assay: Activation of Nrf2 in normal human lung fibroblasts assessed as induction of HMOX protein expression by measuring HMOX positive cells level at 0.3 uM incubated for 16 to 18 hrs by immunostaining relative to control DMSO
[12] = target: T1, Nuclear factor erythroid 2-related factor 2 (Homo sapiens); assay: Activation of Nrf2 in normal human lung fibroblasts assessed as induction of HMOX protein expression by measuring HMOX positive cells level at 1 uM incubated for 16 to 18 hrs by immunostaining relative to control DMSO
[13] = target: T1, Nuclear factor erythroid 2-related factor 2 (Homo sapiens); assay: Activation of Nrf2 in normal human lung fibroblasts assessed as induction of HMOX protein expression by measuring HMOX positive cells level at 3 uM incubated for 16 to 18 hrs by immunostaining relative to control DMSO
[14] = target: T1, Nuclear factor erythroid 2-related factor 2 (Homo sapiens); assay: Activation of Nrf2 in normal human lung fibroblasts assessed as induction of HMOX protein expression by measuring HMOX positive cells level at 10 uM incubated for 16 to 18 hrs by immunostaining relative to control DMSO
[15] = target: T1, Nuclear factor erythroid 2-related factor 2 (Homo sapiens); assay: Activation of Nrf2 in normal human lung fibroblasts assessed as induction of HMOX protein expression at 0.03 uM incubated for 16 to 18 hrs by immunostaining relative to control
[16] = target: T1, Nuclear factor erythroid 2-related factor 2 (Homo sapiens); assay: Activation of Nrf2 in normal human lung fibroblasts assessed as induction of HMOX protein expression at 0.1 uM incubated for 16 to 18 hrs by immunostaining relative to control
[17] = target: T1, Nuclear factor erythroid 2-related factor 2 (Homo sapiens); assay: Activation of Nrf2 in normal human lung fibroblasts assessed as induction of HMOX protein expression at 0.3 uM incubated for 16 to 18 hrs by immunostaining relative to control
[18] = target: T1, Nuclear factor erythroid 2-related factor 2 (Homo sapiens); assay: Activation of Nrf2 in normal human lung fibroblasts assessed as induction of HMOX protein expression at 1 uM incubated for 16 to 18 hrs by immunostaining relative to control
[19] = target: T1, Nuclear factor erythroid 2-related factor 2 (Homo sapiens); assay: Activation of Nrf2 in normal human lung fibroblasts assessed as induction of HMOX protein expression at 3 uM incubated for 16 to 18 hrs by immunostaining relative to control
[20] = target: T1, Nuclear factor erythroid 2-related factor 2 (Homo sapiens); assay: Activation of Nrf2 in normal human lung fibroblasts assessed as induction of HMOX protein expression at 10 uM incubated for 16 to 18 hrs by immunostaining relative to control
[21] = target: T1, Nuclear factor erythroid 2-related factor 2 (Homo sapiens); assay: Activation of Nrf2 in normal human lung fibroblasts assessed as induction of HMOX protein expression by measuring HMOX positive cells level at 30 uM incubated for 16 to 18 hrs by immunostaining relative to control DMSO
[22] = target: T1, Nuclear factor erythroid 2-related factor 2 (Homo sapiens); assay: Activation of Nrf2 in normal human lung fibroblasts assessed as induction of HMOX protein expression at 30 uM incubated for 16 to 18 hrs by immunostaining relative to control

COC(=O)[C@]12CCC(C)(C)C[C@H]1[C@H]1C(=O)C=C3[C@@]4(C)C=C(C#N)C(=O)C(C)(C)[C@@H]4CC[C@@]3(C)[C@]1(C)CC2
fold change (FC) [1]: 1.31 | fold change (FC) [2]: 1.59 | fold change (FC) [3]: 2.53 | fold change (FC) [4]: 5 | fold change (FC) [5]: 8.48 | fold change (FC) [6]: 12.2 | fold change (FC) [7]: 19 | fold change (FC) [8]: 16.4

COC(=O)/C=C/C(=O)OC
Activity [9]: 1.71% | Activity [10]: 1.21% | Activity [11]: 2.47% | Activity [12]: 4.38% | Activity [13]: 41.6% | Activity [14]: 74.3% | fold change (FC) [15]: 1.04 | fold change (FC) [16]: 1.06 | fold change (FC) [17]: 1.14 | fold change (FC) [18]: 1.39 | fold change (FC) [19]: 2.76 | fold change (FC) [20]: 4.45 | Activity [21]: 84.6% | fold change (FC) [22]: 6.19
